Data: patent US11617748B2, “Meclozine derivatives and diclazuril derivatives for use in the prevention and/or the treatment of disorders associated to the inflammation induced by P. acnes” (priority 2016, dated 2023)
Counter-ions that a name gives are not always drawn.

Columns and labels:
Format in all cases: cell-based, human
[1] = tested on: IL-8 production; experiment: P. acnes-induced IL-8 production in HaCaT keratinocytes (ELISA); settings: for decrease of IL-8 production at 6.25 μM / Dose-dependent inhibition of IL-8 production by keratinocytes stimulated by P. acnes pre-treated with meclozine analogues: 24 h pre-treatment; for decrease of IL-8 production at 6.25 μM: comparison with acne drugs (FIG. 8A); for Dose-dependent inhibition of IL-8 production by keratinocytes stimulated by P. acnes pre-treated with meclozine analogues: 10 μM; for effect on IL-8 production at 6.25 μM, in words: 24 h pre-treatment (FIG. 8A)
Experimental: Bacterial strain and conditions of growth. P. acnes strain 6919 was obtained from the American Type Culture Collection (Manassas, Va.) and P. acnes strains RON and PIE were isolated from patient with joint infection. All strains were grown under anaerobic conditions in reinforced clostridial liquid and solid medium (RCM) (Difco Laboratories, Detroit, Mich.). P. acnes was transferred from the bacterial stock onto RCM agar plate and incubated for 5 days under anaerobic condition by using a GasPak™ EZ Anaerobic Container System (Becton Dickinson & Co, Sparks Md., USA). A single colony was transferred into 100 ml RCM and grown as described above. Bacterial suspension was then store frozen at −80° C. in presence of 10% glycerol final. This stock was called «start stock» and used for all the experiments. For routine culture, 100 ml of RCM was used and bacteria were harvested after 5 days at 37° C. by centrifugation at 7,000×g for 10 min at 4° C. Pellets were pooled and washed in about 30 ml of cold sterile PBS [1.5 mM KH2PO4, 2.7 mM Na2HPO4.7H2O, 0.15 M NaCl (pH 7.4)] and centrifuged again as described above. Finally, the bacterial pellet was suspended in sterile PBS (1:10 from volume culture).
(§1) Cell culture, pretreatment and stimulation. The immortalized human keratinocyte cell line HaCaT, fibroblast MRC5 were grown in Dulbecco's modified Eagle's medium-Glutamax-I (DMEM) with 1 mM sodium pyruvate. The immortalized human monocytic cell line ThP1 was grown in Roswell Park Memorial Institute 1640 Medium-Glutamax-I (RPMI). DMEM and RPMI were supplemented with 0.1% and 10% heat-inactivated fetal calf serum (Invitrogen), and an antibiotic/antimycotic solution (10 U/ml Pencillin, 10 μg/ml Streptomycin, 0.25 μg/ml Amphoterin) at 37° C. in humidified atmosphere containing 5% CO2 as described (Life Technologie). Primary human keratinocytes (NHDK) and fibroblast (HDF) were grown in the KGM-Gold and in FGM-2 Bullet Kit, respectively, as described by the manufacturer (Lonza). The immortalized cell lines were routinely tested to assess the absence of Mycoplasma infection. Cells, cultivated in 6- or 96-well polystyrene plates, were pretreated with appropriate molecule solution for 1 to 48 h at 37° C. in the dark at the appropriate concentration. Then, for stimulation, cells were incubated for 15 min to 24 h with the P. acnes suspension adjusted at the appropriate concentration at 37° C. in 5% CO2. For experiences using an in vitro model of psoriasis, the primary human keratinocytes (NHDK) were grown in culture medium for 24 hours. The medium was removed and replaced with culture medium containing meclozine, diclazuril and JAK inhibitor (used as positive control) at the concentrations of 0.39, 0.78, 1.56, 3.12, 6.25 and 12.5 μM and the pro-inflammatory mixture M5 (combination of IL-17A, OSM, TNF-α, IL-22, IL-1α at 10 ng/ml) was added to the cells followed by an incubation for 48 or 72 hours.
(§2) ELISA. Human IL-1β, IL-8, hBD-2 and TNF-α protein concentration were measured in the supernatants of stimulated cells using various ELISA Sets (all from Ready-Set-Go from eBioscience, except hBD-2 measurements: Human DEFB4A/BD-2 ELISA Kit from LSBio) according to the manufacturer's instructions. We used serial dilutions of recombinant human IL-1β, IL-8, hBD-2 and TNF-α for standard curve. The optical density was determined at 450 nm at a wavelength correction of 540 nm.
Both molecules, diclazuril and meclozine, were purchased separately from Sigma and tested independently on immortalized keratinocytes HaCaT cell for their capacity to inhibit the IL-8 production in a dose-dependent manner. HaCaT cells were pre-treated with diclazuril and meclozine, at the concentrations ranging from 0.39 to 50 μM, for 24 h and then stimulated with P. acnes suspension as described in Materials and Methods. The production of IL-8 was measured on culture supernatant by ELISA and the viability of cells was estimated by MTT assay (FIG. 1).

[2] = tested on: IL-8 production; experiment: IL-8 production by M5-stimulated NHDK, in vitro psoriasis-like model (ELISA); settings: NHDK + M5, 48 h, JAK inhibitor at 6.25 μM (positive control)
Experimental: (§3) Cell culture, pretreatment and stimulation.
as §2

[3] = tested on: hBD-2 production; experiment: hBD-2 production by M5-stimulated NHDK, in vitro psoriasis-like model (ELISA); settings: NHDK + M5, 48 h, JAK inhibitor at 6.25 μM (positive control)
Experimental: as §3, §2

[4] = tested on: HaCaT cells; experiment: MTT cell viability assay on HaCaT keratinocytes; settings: for Evaluation of cell viability after treatment with meclozine analogues on keratinocytes: 24 h, 10 μM
Experimental: as §1, with “The immortalized human monocytic cell line ThP1 was grown in Roswell Park Memorial Institute 1640 Medium-Glutamax-I (RPMI).” left out, “hours.” for “hours. The medium was removed and replaced with culture medium containing meclozine, diclazuril and JAK inhibitor (used as positive control) at the concentrations of 0.39, 0.78, 1.56, 3.12, 6.25 and 12.5 μM and the pro-inflammatory mixture M5 (combination of IL-17A, OSM, TNF-α, IL-22, IL-1α at 10 ng/ml) was added to the cells followed by an incubation for 48 or 72 hours.”
Cell viability assays. Viability of cells was estimated by using the MTT assay where cells were incubated with a 0.2% MTT solution in cell culture medium for 4 h at 37° C. The MTT solution was then discarded and DMSO added to solubilize the MTT-formazan cristals produced in living cells. After thorough mixing, the absorbance was measured at 540 nm.

[5] = tested on: IL-8 production; experiment: P. acnes-induced IL-8 production in HaCaT keratinocytes (ELISA); settings: HaCaT cells pre-treated 24 h, no P. acnes stimulation

CC1=C(/C=C/C(C)=C/C=C/C(C)=C\C(=O)O)C(C)(C)CCC1 [isotretinoin] was tested, and the “decrease of IL-8 production at 6.25 μM” value ([1]; HaCaT) was 5%.

Jak Inhibitor I was tested, and the “inhibition of M5-stimulated IL-8 production” value [2] was 49% and the “inhibition of stimulated hBD-2 production” value [3] was 38%.

For Fc1ccc(C(OCCN2CCN(CCCc3ccccc3)CC2)c2ccc(F)cc2)cc1 [GBR 12909 dihydrochloride], the “Dose-dependent inhibition of IL-8 production by keratinocytes stimulated by P. acnes pre-treated with meclozine analogues” value ([1]; HaCaT) was 78% and the “Evaluation of cell viability after treatment with meclozine analogues on keratinocytes” value ([4]; human) was 78%.

O=C(OOC(=O)c1ccccc1)c1ccccc1 [benzoyl peroxide] was tested, and the “effect on IL-8 production at 6.25 μM, in words” value (“effect on IL-8 production” for short) ([1]; HaCaT) was “very low none significative or no effect” and the “toxicity at 6.25 μM, in words (MTT)” value ([4]; HaCaT, 6.25 μM, 24 h pre-treatment (FIG. 8A)) was “no toxicity”.

For CC1=C(/C=C/C(C)=C/C=C/C(C)=C/C(=O)O)C(C)(C)CCC1 [retinoic acid], the “decrease of IL-8 production at 6.25 μM” value ([1]; HaCaT) was 5%.

In the case of COc1ccc(-c2ccc3cc(C(=O)O)ccc3c2)cc1C12CC3CC(CC(C3)C1)C2 [adapalene], the “decrease of IL-8 production at 6.25 μM” value ([1]; HaCaT) is reported as 20% and the “IL-8 reduction at 12.5 μM” value ([1]; HaCaT, 12.5 μM, 24 h pre-treatment (FIG. 8B)) is reported as 90%.

With CCC[C@@H]1C[C@@H](C(=O)N[C@@H]([C@H]2O[C@H](SC)[C@H](O)[C@@H](O)[C@H]2O)[C@H](C)Cl)N(C)C1 [clindamycine] the “effect on IL-8 production” value ([1]; HaCaT) was “very low none significative or no effect”.

For CC[C@H]1OC(=O)[C@H](C)[C@@H](O[C@H]2C[C@@](C)(OC)[C@@H](O)[C@H](C)O2)[C@H](C)[C@@H](O[C@@H]2O[C@H](C)C[C@H](N(C)C)[C@H]2O)[C@](C)(O)C[C@@H](C)C(=O)[C@H](C)[C@@H](O)[C@]1(C)O [erythromycine], the “effect on IL-8 production” value ([1]; HaCaT) was “very low none significative or no effect”.

In the case of Cc1cc(-n2ncc(=O)[nH]c2=O)cc(Cl)c1Sc1ccc(Cl)cc1 [RCL PH000645-PH, PH000645-PH], the IC50 ([1]; Homo sapiens, HaCaT cells pre-treated 24 h, then stimulated with P. acnes, read-out: IC50 of inhibition of IL-8 production) is reported as about 3000 nM and the “IL-8 production in pretreated cells without being stimulated” value [5] is reported as “no change”.

For Cc1cccc(C)c1NC(=O)CN1CCN(CCCC(c2ccc(F)cc2)c2ccc(F)cc2)CC1 [Lidoflazine], the “Dose-dependent inhibition of IL-8 production by keratinocytes stimulated by P. acnes pre-treated with meclozine analogues” value ([1]; HaCaT) was 65% and the “Evaluation of cell viability after treatment with meclozine analogues on keratinocytes” value ([4]; human) was 107%.

In the case of CN1CCN(C(c2ccccc2)c2ccc(Cl)cc2)CC1 (centres unmarked) [Chlorcyclizine hydrochloride], the “Dose-dependent inhibition of IL-8 production by keratinocytes stimulated by P. acnes pre-treated with meclozine analogues” value ([1]; HaCaT) is reported as 54% and the “Evaluation of cell viability after treatment with meclozine analogues on keratinocytes” value ([4]; human) is reported as 81%.

In the case of COc1ccc(CN2CCN(C(c3ccc(F)cc3)c3ccc(F)cc3)CC2)c(OC)c1OC [Lomerizine], the “Dose-dependent inhibition of IL-8 production by keratinocytes stimulated by P. acnes pre-treated with meclozine analogues” value ([1]; HaCaT) is reported as 58% and the “Evaluation of cell viability after treatment with meclozine analogues on keratinocytes” value ([4]; HaCaT, MTT) is reported as 95%.
